Experimental data published in patent EP0539086B1, “Condensed pyrimidine derivatives and their use as angiotensine II antagonists” (AMERICAN HOME PRODUCTS CORPORATION, priority 1991, dated 1993).

Tested on: A II-infused rat
Assay: A II-infused rat model (antihypertensive action)
Assay type: in vivo
Conditions: 3 mg/kg id, average, four hours post-administration, anesthetized ganglion-blocked rats with A II infusion
Method: In accordance with their ability to antagonize angiotensin II, the compounds of this invention show antihypertensive action in the following A II-infused rat model. Procedure: Rats are anesthetized with Dial-Urethane (0.60 mL/kg, ip) and the trachea cannulated with PR 240. Either one femoral artery and both femoral veins or the carotid artery and the corresponding jugular vein are cannulated with PE 50. If the jugular vein is cannulated, two cannulas are placed in the one vein. The initial portion of the duodenum (just distal to the stomach) is cannulated with PE 50 via a small midline incision. Arterial pressure and heart rate are measured from the arterial cannula. Ten to 15 min are allowed following surgery for stabilization of arterial pressure. Ganglion blockade is then produced by intravenous administration of mecamylamine at 3 mg/kg (1 mL/kg of a 3 mg/mL solution). Ganglion blockade causes a fall in arterial pressure of about 50 mmHg. Mecamylamine is given every 90 min throughout the remainder of the experiment. An A II infusion is then begun into the other venous cannula at 0.25 µg/kg min (at 9.6 µL/min). The A II infusion returns arterial pressure to or slightly above the control level. Once arterial pressure has stabilized with the A II infusion, baseline values for mean arterial pressure (MAP) and heart rate are taken. […]

Cc1nc(C)c2c(n1)N(Cc1ccc(-c3ccccc3-c3nnn[nH]3)cc1)C(=O)C2 [Example 1, 2,4-Dimethyl-5,7-dihydro-7-[[2'-(1H-tetrazol-5-yl)[1,1-bi-phenyl]-4-yl]methyl]-6H-pyrrolo[2,3-d]pyrimidin-6-one]
lowered the A II dependent blood pressure: 41%
